# Key:
# human TLR7 = target: T1, human TLR7 (Homo sapiens, UniProt Q9NYK1); test: TLR7 inhibition reporter assay (HEK-Blue cells, SEAP reporter, gardiquimod stimulation); format: cell-based; settings: HEK-Blue cells overexpressing human TLR7, SEAP reporter, gardiquimod 7.5 μM; read-out: TLR7 IC50
# T1 construct: host or cells: HEK-Blue cells
# T1 sequence (Q9NYK1 27-1049): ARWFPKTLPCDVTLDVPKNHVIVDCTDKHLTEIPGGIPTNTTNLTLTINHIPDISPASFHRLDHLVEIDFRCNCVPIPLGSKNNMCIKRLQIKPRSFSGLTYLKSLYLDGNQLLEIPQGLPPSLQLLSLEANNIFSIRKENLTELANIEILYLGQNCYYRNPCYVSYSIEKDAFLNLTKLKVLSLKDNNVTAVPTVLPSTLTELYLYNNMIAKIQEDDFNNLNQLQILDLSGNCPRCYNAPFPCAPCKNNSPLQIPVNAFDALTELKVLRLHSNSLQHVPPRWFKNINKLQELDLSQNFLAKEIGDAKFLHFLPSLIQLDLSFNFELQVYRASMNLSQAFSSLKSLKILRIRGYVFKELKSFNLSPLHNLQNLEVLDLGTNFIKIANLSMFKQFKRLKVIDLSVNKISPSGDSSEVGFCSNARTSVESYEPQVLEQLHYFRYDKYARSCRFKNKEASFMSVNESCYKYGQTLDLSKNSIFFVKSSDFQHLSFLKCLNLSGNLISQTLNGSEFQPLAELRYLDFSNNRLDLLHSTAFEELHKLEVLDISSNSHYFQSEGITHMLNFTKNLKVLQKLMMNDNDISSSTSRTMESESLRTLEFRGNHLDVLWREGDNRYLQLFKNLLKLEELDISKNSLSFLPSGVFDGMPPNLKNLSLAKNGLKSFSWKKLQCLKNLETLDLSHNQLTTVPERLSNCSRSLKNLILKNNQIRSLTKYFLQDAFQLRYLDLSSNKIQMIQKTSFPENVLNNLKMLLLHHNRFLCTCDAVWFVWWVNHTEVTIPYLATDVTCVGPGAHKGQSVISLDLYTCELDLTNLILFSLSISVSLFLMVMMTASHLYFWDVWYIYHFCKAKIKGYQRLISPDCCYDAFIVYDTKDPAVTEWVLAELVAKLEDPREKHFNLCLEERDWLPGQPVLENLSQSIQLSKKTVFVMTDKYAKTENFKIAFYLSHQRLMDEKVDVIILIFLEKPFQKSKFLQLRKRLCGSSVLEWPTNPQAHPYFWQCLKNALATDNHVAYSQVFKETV
# Outline: (§1)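 Human TLR7/8/9 HEK-Blue reporter lines; dose range 0.05 nM–50 μM; 30 min RT preincubation; stimulus gardiquimod 7.5 μM / R848 15.9 μM / ODN2006 5 nM respectively; 22 h, 37 °C; SEAP detected colorimetrically.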
# human TLR8 = target: T2, human TLR8 (Homo sapiens, UniProt Q9NR97); test: TLR8 inhibition reporter assay (HEK-Blue cells, SEAP reporter, R848 stimulation); format: cell-based; settings: HEK-Blue cells overexpressing human TLR8, SEAP reporter, R848 15.9 μM; read-out: TLR8 IC50
# T2 construct: host or cells: HEK-Blue cells
# T2 sequence (Q9NR97 27-1041): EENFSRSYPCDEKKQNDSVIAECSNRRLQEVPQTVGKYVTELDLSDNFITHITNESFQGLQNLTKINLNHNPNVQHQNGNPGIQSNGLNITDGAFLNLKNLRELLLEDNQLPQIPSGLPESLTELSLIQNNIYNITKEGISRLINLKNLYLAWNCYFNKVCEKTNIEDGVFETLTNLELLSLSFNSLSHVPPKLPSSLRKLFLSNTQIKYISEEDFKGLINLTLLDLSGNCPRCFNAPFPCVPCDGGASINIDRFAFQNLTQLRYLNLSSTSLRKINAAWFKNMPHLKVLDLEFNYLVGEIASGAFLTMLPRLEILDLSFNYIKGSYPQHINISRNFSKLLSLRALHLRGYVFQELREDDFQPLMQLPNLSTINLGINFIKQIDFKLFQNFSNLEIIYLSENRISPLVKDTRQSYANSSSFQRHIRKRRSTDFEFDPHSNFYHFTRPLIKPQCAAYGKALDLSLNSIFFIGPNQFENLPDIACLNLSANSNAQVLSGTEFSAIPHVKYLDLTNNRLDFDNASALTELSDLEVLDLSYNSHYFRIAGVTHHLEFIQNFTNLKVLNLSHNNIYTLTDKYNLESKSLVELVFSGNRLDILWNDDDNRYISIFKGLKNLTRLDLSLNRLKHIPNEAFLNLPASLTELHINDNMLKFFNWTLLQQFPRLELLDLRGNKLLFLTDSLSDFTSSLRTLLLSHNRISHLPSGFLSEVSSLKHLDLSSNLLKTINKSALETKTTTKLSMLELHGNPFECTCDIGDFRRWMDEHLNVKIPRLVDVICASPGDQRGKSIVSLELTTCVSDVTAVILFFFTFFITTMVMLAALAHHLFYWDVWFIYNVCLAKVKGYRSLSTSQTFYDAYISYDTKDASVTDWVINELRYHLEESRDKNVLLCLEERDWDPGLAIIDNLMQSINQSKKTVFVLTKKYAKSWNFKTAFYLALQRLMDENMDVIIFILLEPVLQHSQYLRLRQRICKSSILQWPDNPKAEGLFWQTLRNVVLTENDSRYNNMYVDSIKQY
# Outline: as §1
smiles,measurement,setting,value
"COc1cc(-c2[nH]c3sc(C4CCC(NC5COC5)CC4)nc3c2C(C)C)cn2ncnc12 (single isomer, unassigned) [Example 65, N-(4-(6-isopropyl-5-(8-methoxy-[1,2,4]triazolo[1,5-a]pyridin-6-yl)-4H-pyrrolo[3,2-d]thiazol-2-yl)cyclohexyl)oxetan-3-amine]",IC50,human TLR7,550 pM
same,IC50,human TLR8,1370 pM

# From patent publication US20230139171A1 (SITA Information Networking Computing UK Limited, priority 2019, published 2023)
